This note sets out measurements from patent US20250179047A1, “5-[7-(3,4-DIHYDRO-1H-ISOQUINOLINE-2-CARBONYL)-1,2,3,4 TETRAHYDROISOQUINOLIN-6-YL]-1H-PYRROLE-3-CARBOXAMIDE DERIVATIVES, PHARMACEUTICAL COMPOSITIONS CONTAINING THEM AND THEIR USES AS PRO-APOPTOTIC AGENTS” (LES LABORATOIRES SERVIER, priority 2022, published 2025).

One test concerns the target BCLXL WT (Homo sapiens (Human), UniProt Q07817). Put plainly: TR-FRET competitive binding assay, BCLXL WT. As to conditions: for Ki: BCLXL WT, Ki determined from IC50, read-out: TR_FRET EKI BclxL; for TR_FRET EKI BCLxL/WT selectivty ratio: ratio Ki BCLxL / Ki BCL2 WT. In a few lines: (§1)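 Ki derived from IC50 (11-point dilution, 520/495 nm emission ratio) for displacing a fluorescein-labelled PUMA peptide (2 or 20 nM). Target was 0.5 nM E. coli-expressed Halo-tagged BCL2 (1-207) or BCLXL (2-196), terbium-labelled on Halo. Incubation 2 h at 23°C in pH 7.5 Hepes with 150 mM NaCl and 5% DMSO.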
For orientation: TR-FRET usually uses a lanthanide donor and a delayed reading to cut background.

The subject of another test is KMS-12-PE Bcl-2 G101V. Put plainly: In vitro cytotoxicity CellTiter-Glo 48 h, KMS-12-PE Bcl-2 G101V. The format is cell-based. As to conditions: for Ratio (G101V/WT): C50 KMS-12-PE Bcl-2 G101V over C50 KMS-12-PE Bcl-2 WT; for IC50: Homo sapiens, KMS-12-PE, 48 h, CellTiter-Glo, C50 = concentration needed to reach 50% of the cellular viability. In a few lines: (§2)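 Bcl-2 WT- and G101V-expressing KMS-12-PE cells; 48 h treatment at 37 °C, 5% CO2; CellTiter-Glo ATP luminescence; C50 from 11-point curves.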
(In general: ATP-based viability assays read luminescence as a measure of living cells.)

The test system of test [1] is BCL2 G101V. Put plainly: TR-FRET competitive binding assay, BCL2 G101V. Details: species or system human. As to conditions: ratio Ki BCL2 G101V / Ki BCL2 WT. In a few lines: as §1
Test [2] addresses BCL2 G101V (Homo sapiens, UniProt P10415, G101V). Put plainly: TR-FRET competitive binding assay, BCL2 G101V. As to conditions: BCL2 G101V; Ki determined from IC50; read-out: TR_FRET EKI_Bcl2 G101V. In a few lines:
as §1

The subject of another test is KMS-12-PE Bcl-2 WT. Put plainly: In vitro cytotoxicity CellTiter-Glo 48 h, KMS-12-PE Bcl-2 WT. Type of test: cell-based. As to conditions: Homo sapiens, KMS-12-PE, C50 = concentration needed to reach 50% of the cellular viability. In a few lines:
as §2

The target in a further test is BCL2 WT (Homo sapiens (Human), UniProt P10415). Put plainly: TR-FRET competitive binding assay, BCL2 WT. The following applies: Ki determined from IC50, read-out: TR_FRET EKI_Bcl2 WT. In a few lines: as §1
A further test addresses BCL2 D103Y (Homo sapiens, UniProt P10415, D103Y). Put plainly: TR-FRET competitive binding assay, BCL2 D103Y. As to conditions: Ki determined from IC50, read-out: TR_FRET EKI_Bcl2 D103Y. In a few lines:
as §1

As a reminder, the IC50 is the concentration needed to halve the response being measured.

Chain of BCLXL WT (Q07817 other isoform, or with tags, fused parts or gaps): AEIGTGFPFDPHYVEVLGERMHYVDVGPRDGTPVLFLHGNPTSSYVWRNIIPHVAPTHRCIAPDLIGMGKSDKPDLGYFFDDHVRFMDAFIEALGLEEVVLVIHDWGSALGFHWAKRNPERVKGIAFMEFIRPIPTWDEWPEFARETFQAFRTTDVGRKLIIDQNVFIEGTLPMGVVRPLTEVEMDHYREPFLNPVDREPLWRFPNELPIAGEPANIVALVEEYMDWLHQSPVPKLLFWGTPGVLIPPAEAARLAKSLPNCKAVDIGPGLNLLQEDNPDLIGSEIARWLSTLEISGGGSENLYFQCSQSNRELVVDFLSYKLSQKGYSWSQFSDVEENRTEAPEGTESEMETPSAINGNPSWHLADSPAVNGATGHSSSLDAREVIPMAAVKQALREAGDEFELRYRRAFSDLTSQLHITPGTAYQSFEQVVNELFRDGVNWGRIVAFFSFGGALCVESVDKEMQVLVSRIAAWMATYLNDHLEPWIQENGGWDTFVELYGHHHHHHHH

Take `Cc1c(N(C(=O)c2cc(-c3cc4c(cc3C(=O)N3Cc5ccccc5C[C@H]3CN3CCCCC3)CN(C(=O)Cc3ccc(OCCN(C)CC5COC5)cc3)CC4)n(C)c2C)c2ccc(O)cc2)cc(C#N)n1C` [Example 104, N-(5-cyano-1,2-dimethyl-1H-pyrrol-3-yl)-N-(4-hydroxyphenyl)-1,2-dimethyl-5-(2-{2-[4-(2-{methyl[(oxetan-3-yl)methyl]amino}ethoxy)phenyl]acetyl}-7-[(3S)-3-[(piperidin-1-yl)methyl]-1,2,3,4-tetrahydroisoquinoline-2-carbonyl]-1,2,3,4-tetrahydroisoquinolin-6-yl)-1H-pyrrole-3-carboxamide]: the Ki on BCLXL WT came to 2.6 nM; at BCL2 G101V [2], 0.4 nM; at BCL2 WT, 0.07 nM; at BCL2 D103Y, 0.17 nM. In addition, the “TR_FRET EKI BCLxL/WT selectivty ratio” value on BCLXL WT is recorded as 40.0. In the test with KMS-12-PE Bcl-2 G101V, the “Ratio (G101V/WT)” value came out at 5.38. Also, the figures for the 50% inhibitory concentration (IC50) with KMS-12-PE Bcl-2 G101V and in the test on KMS-12-PE Bcl-2 WT were 0.0893 µM and 0.0166 µM, respectively. In addition, the “TR_FRET EKI G101V/WT selectivty ratio” value with BCL2 G101V [1] turned out to be 5.8.

On to `Cc1c(N(C(=O)c2cc(-c3cc4c(cc3C(=O)N3Cc5ccccc5C[C@H]3CN3CCCCC3)CN(C(=O)COc3ccccc3)CC4)n(C)c2C)c2ccc(O)cc2)cc(C#N)n1C` [Example 133, N-(5-cyano-1,2-dimethyl-1H-pyrrol-3-yl)-N-(4-hydroxyphenyl)-1,2-dimethyl-5-[2-(2-phenoxyacetyl)-7-[(3S)-3-[(piperidin-1-yl)methyl]-1,2,3,4-tetrahydroisoquinoline-2-carbonyl]-1,2,3,4-tetrahydroisoquinolin-6-yl]-1H-pyrrole-3-carboxamide], for which the Ki on BCLXL WT worked out at 1.9 nM; at BCL2 G101V [2] it was 0.6 nM; on BCL2 WT, 0.07 nM; on BCL2 D103Y, 0.38 nM. The “TR_FRET EKI BCLxL/WT selectivty ratio” value at BCLXL WT was 29.2. Besides, the “Ratio (G101V/WT)” value in the test with KMS-12-PE Bcl-2 G101V is on record as 5.59. In addition, the IC50 with KMS-12-PE Bcl-2 G101V is 0.0556 µM; in the test with KMS-12-PE Bcl-2 WT, 0.01 µM. Further, the “TR_FRET EKI G101V/WT selectivty ratio” value in the test on BCL2 G101V [1] came to 9.4.

Consider `Cc1c(C(=O)N(c2ccc(O)cc2)c2cc(C#N)n(C(C)C)c2C)cc(-c2cc3c(cc2C(=O)N2Cc4ccccc4C[C@H]2C)CN(C(=O)Cc2ccc(OCCN4CCOCC4)cc2)CC3)n1C` [Example 64, N-(5-cyano-1-isopropyl-2-methyl-pyrrol-3-yl)-N-(4-hydroxyphenyl)-1,2-dimethyl-5-[7-[(3R)-3-methyl-3,4-dihydro-1H-isoquinoline-2-carbonyl]-2-[2-[4-(2-morpholinoethoxy)phenyl]acetyl]-3,4-dihydro-1H-isoquinolin-6-yl]pyrrole-3-carboxamide], for which the Ki at BCLXL WT was 2.8 nM; on BCL2 G101V [2], 0.5 nM; on BCL2 WT, 0.11 nM; at BCL2 D103Y, 0.79 nM. Further, the “TR_FRET EKI BCLxL/WT selectivty ratio” value at BCLXL WT is recorded as 25.5. Further, in the test with KMS-12-PE Bcl-2 G101V, the “Ratio (G101V/WT)” value is 4.78. Also, the IC50 with KMS-12-PE Bcl-2 G101V turned out to be 0.0745 µM; in the test on KMS-12-PE Bcl-2 WT, 0.0156 µM. Moreover, the “TR_FRET EKI G101V/WT selectivty ratio” value in the test on BCL2 G101V [1] is 4.5.

On to `COc1ccc(N(C(=O)c2cc(-c3cc4c(cc3C(=O)N3Cc5ccccc5C[C@H]3CN3CCCCC3)CN(C(=O)Cc3ccc(OCCN5CCOCC5)cc3F)CC4)n(C)c2C)c2ccc(O)cc2)cc1C#N` [Example 167, N-(3-cyano-4-methoxyphenyl)-5-[2-(2-{2-fluoro-4-[2-(morpholin-4-yl)ethoxy]phenyl}acetyl)-7-{[(3S)-3-(piperidin-1-ylmethyl)-3,4-dihydro-1H-isoquinolin-2-yl]carbonyl}-3,4-dihydro-1H-isoquinolin-6-yl]-N-(4-hydroxyphenyl)-1,2-dimethylpyrrole-3-carboxamide], for which the Ki worked out at 8.4 nM at BCLXL WT, 0.3 nM on BCL2 G101V [2], 0.05 nM on BCL2 WT and 0.15 nM on BCL2 D103Y. On BCLXL WT, the “TR_FRET EKI BCLxL/WT selectivty ratio” value was 171.4. Further, in the test on KMS-12-PE Bcl-2 G101V, the “Ratio (G101V/WT)” value worked out at 8.5769. Further, the IC50 in the test on KMS-12-PE Bcl-2 G101V worked out at 0.0669 µM; with KMS-12-PE Bcl-2 WT, 0.0078 µM. In addition, the “TR_FRET EKI G101V/WT selectivty ratio” value in the test with BCL2 G101V [1] was found to be 6.5.

With `Cc1c(C(=O)N(c2ccc(O)cc2)c2cc(C#N)n(CCN(C)C3CC3)c2C)cc(-c2cc3c(cc2C(=O)N2Cc4ccccc4C[C@H]2C)CN(C(=O)Cc2ccccc2)CC3)n1C` [Example 22, N-[5-cyano-1-[2-[cyclopropyl(methyl)amino]ethyl]-2-methyl-pyrrol-3-yl]-N-(4-hydroxyphenyl)-1,2-dimethyl-5-[7-[(3R)-3-methyl-3,4-dihydro-1H-isoquinoline-2-carbonyl]-2-(2-phenylacetyl)-3,4-dihydro-1H-isoquinolin-6-yl]pyrrole-3-carboxamide], the Ki at BCLXL WT came to 2.3 nM; on BCL2 G101V [2] it was 1 nM; at BCL2 WT it was 0.2 nM; on BCL2 D103Y, 0.82 nM. At BCLXL WT, the “TR_FRET EKI BCLxL/WT selectivty ratio” value turned out to be 11.5. For the same compound, in the test on KMS-12-PE Bcl-2 G101V, the “Ratio (G101V/WT)” value is on record as 8.47. Besides, the figures for the concentration for half-maximal inhibition (IC50) in the test on KMS-12-PE Bcl-2 G101V and in the test with KMS-12-PE Bcl-2 WT were 0.0864 µM and 0.0102 µM, respectively. In addition, the “TR_FRET EKI G101V/WT selectivty ratio” value with BCL2 G101V [1] came to 5.0.

On to `Cc1c(C(=O)N(c2ccc(O)cc2)c2cc(C#N)n(C(F)F)c2C)cc(-c2cc3c(cc2C(=O)N2Cc4ccccc4C[C@H]2CN2CCCCC2)CN(C(=O)Cc2ccc(OCCN4CCN(C)CC4)cc2F)CC3)n1C` [Example 160, N-[5-cyano-1-(difluoromethyl)-2-methylpyrrol-3-yl]-5-[2-(2-{2-fluoro-4-[2-(4-methylpiperazin-1-yl)ethoxy]phenyl}acetyl)-7-{[(3S)-3-(piperidin-1-ylmethyl)-3,4-dihydro-1H-isoquinolin-2-yl]carbonyl}-3,4-dihydro-1H-isoquinolin-6-yl]-N-(4-hydroxyphenyl)-1,2-dimethylpyrrole-3-carboxamide], for which the Ki stood at 1.5 nM on BCLXL WT, 0.2 nM on BCL2 G101V [2], 0.03 nM on BCL2 WT and 0.18 nM on BCL2 D103Y. At BCLXL WT, the “TR_FRET EKI BCLxL/WT selectivty ratio” value turned out to be 55.6. The “Ratio (G101V/WT)” value in the test with KMS-12-PE Bcl-2 G101V stood at 3.8053. For the same compound, the values for the 50% inhibitory concentration (IC50) in the test with KMS-12-PE Bcl-2 G101V and in the test with KMS-12-PE Bcl-2 WT were 0.043 µM and 0.0113 µM, respectively. Further, in the test on BCL2 G101V [1], the “TR_FRET EKI G101V/WT selectivty ratio” value was found to be 6.3.

As for `Cc1c(N(C(=O)c2cc(-c3cc4c(cc3C(=O)N3Cc5ccccc5C[C@H]3CN3CCCCC3)CN(C(=O)Cc3ccc(OCCN5CCN(CC(F)F)CC5)cc3)CC4)n(C)c2C)c2ccc(O)cc2)cc(C#N)n1C` [Example 112, N-(5-cyano-1,2-dimethylpyrrol-3-yl)-5-{2-[2-(4-{2-[4-(2,2-difluoroethyl)piperazin-1-yl]ethoxy}phenyl)acetyl]-7-{[(3S)-3-(piperidin-1-ylmethyl)-3,4-dihydro-1H-isoquinolin-2-yl]carbonyl}-3,4-dihydro-1H-isoquinolin-6-yl}-N-(4-hydroxyphenyl)-1,2-dimethylpyrrole-3-carboxamide], the Ki at BCLXL WT amounted to 7.1 nM; at BCL2 G101V [2] it was 0.3 nM; on BCL2 WT it was 0.05 nM; on BCL2 D103Y, 0.1 nM. Also, on BCLXL WT, the “TR_FRET EKI BCLxL/WT selectivty ratio” value is 134.0. The “Ratio (G101V/WT)” value in the test on KMS-12-PE Bcl-2 G101V stood at 5.7. Also, the values for the IC50 with KMS-12-PE Bcl-2 G101V and in the test on KMS-12-PE Bcl-2 WT were 0.0707 µM and 0.0124 µM, respectively. Besides, in the test on BCL2 G101V [1], the “TR_FRET EKI G101V/WT selectivty ratio” value worked out at 5.6.

`Cc1c(C(=O)N(c2ccc(O)cc2)c2cc(C#N)n(CC3CCOC3)c2C)cc(-c2cc3c(cc2C(=O)N2Cc4ccccc4C[C@H]2C)CN(C(=O)Cc2ccc(OCCN4CCOCC4)cc2F)CC3)n1C` (single isomer, unassigned) [Example 84, N-[5-cyano-2-methyl-1-((3S or R)-tetrahydrofuran-3-ylmethyl)pyrrol-3-yl]-5-[2-[2-[2-fluoro-4-(2-morpholinoethoxy)phenyl]acetyl]-7-[(3R)-3-methyl-3,4-dihydro-1H-isoquinoline-2-carbonyl]-3,4-dihydro-1H-isoquinolin-6-yl]-N-(4-hydroxyphenyl)-1,2-dimethyl-pyrrole-3-carboxamide]: the Ki on BCLXL WT amounted to 1.8 nM; at BCL2 G101V [2], 1 nM; at BCL2 WT, 0.16 nM; at BCL2 D103Y, 0.43 nM. Further, the “TR_FRET EKI BCLxL/WT selectivty ratio” value at BCLXL WT is recorded as 11.3. For the same compound, the “Ratio (G101V/WT)” value with KMS-12-PE Bcl-2 G101V is 4.83. Further, the results for the IC50 with KMS-12-PE Bcl-2 G101V and in the test on KMS-12-PE Bcl-2 WT were 0.0353 µM and 0.0073 µM, respectively. For the same compound, the “TR_FRET EKI G101V/WT selectivty ratio” value in the test on BCL2 G101V [1] is 5.9.
